In PubChem BioAssay (NCI):
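Interpolation was linear, between the two tested concentrations surrounding the appropriate level; five concentrations were tested over 48 hours in 96-well plates. GI50 marks 50% less growth. TGI: total growth inhibition.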

Key:
Test in all cases: NCI-60 cell line screen, 48 h
SK-MEL-5 melanoma = tested on: SK-MEL-5 melanoma
SK-MEL-2 melanoma = tested on: SK-MEL-2 melanoma
M14 melanoma = tested on: M14 melanoma
KM12 colon = tested on: KM12 colon
OVCAR-3 ovarian = tested on: OVCAR-3 ovarian
SF-295 CNS = tested on: SF-295 CNS
CCRF-CEM leukemia = tested on: CCRF-CEM leukemia
HS 578T breast = tested on: HS 578T breast
NCI/ADR-RES ovarian = tested on: NCI/ADR-RES ovarian
IGROV1 ovarian = tested on: IGROV1 ovarian
RXF 393 renal = tested on: RXF 393 renal
UACC-62 melanoma = tested on: UACC-62 melanoma
T-47D breast = tested on: T-47D breast
LOX IMVI melanoma = tested on: LOX IMVI melanoma
MALME-3M melanoma = tested on: MALME-3M melanoma
SF-539 CNS = tested on: SF-539 CNS
HL-60(TB) leukemia = tested on: HL-60(TB) leukemia
SR leukemia = tested on: SR leukemia
OVCAR-4 ovarian = tested on: OVCAR-4 ovarian
NCI-H23 lung = tested on: NCI-H23 lung
OVCAR-8 ovarian = tested on: OVCAR-8 ovarian
SK-MEL-28 melanoma = tested on: SK-MEL-28 melanoma
DU-145 prostate = tested on: DU-145 prostate
PC-3 prostate = tested on: PC-3 prostate
UACC-257 melanoma = tested on: UACC-257 melanoma
RPMI-8226 leukemia = tested on: RPMI-8226 leukemia
HCC-2998 colon = tested on: HCC-2998 colon
SK-OV-3 ovarian = tested on: SK-OV-3 ovarian
HT29 colon = tested on: HT29 colon
TK-10 renal = tested on: TK-10 renal
HCT-116 colon = tested on: HCT-116 colon
NCI-H226 lung = tested on: NCI-H226 lung
SW-620 colon = tested on: SW-620 colon
U251 CNS = tested on: U251 CNS
MCF7 breast = tested on: MCF7 breast
MDA-MB-435 = tested on: MDA-MB-435
HOP-62 NSCLC = tested on: HOP-62 NSCLC
MOLT-4 leukemia = tested on: MOLT-4 leukemia
HCT-15 colon = tested on: HCT-15 colon
OVCAR-5 ovarian = tested on: OVCAR-5 ovarian
MDA-MB-231 breast = tested on: MDA-MB-231 breast
SNB-75 CNS = tested on: SNB-75 CNS
NCI-H522 lung = tested on: NCI-H522 lung
786-0 renal = tested on: 786-0 renal
SNB-19 CNS = tested on: SNB-19 CNS
SF-268 CNS = tested on: SF-268 CNS
UO-31 renal = tested on: UO-31 renal
ACHN renal = tested on: ACHN renal
BT-549 breast = tested on: BT-549 breast
K-562 leukemia = tested on: K-562 leukemia
EKVX NSCLC = tested on: EKVX NSCLC
A498 renal = tested on: A498 renal
NCI-H460 lung = tested on: NCI-H460 lung
A549 NSCLC = tested on: A549 NSCLC
SN12C renal = tested on: SN12C renal
COLO 205 colon = tested on: COLO 205 colon
HOP-92 NSCLC = tested on: HOP-92 NSCLC
CAKI-1 renal = tested on: CAKI-1 renal

With Cc1nn(CCO)c(C)c1N=[N+]([O-])c1c(C)nn(CCO)c1C the GI50 (SK-MEL-5 melanoma) was 11 µM, the TGI (SK-MEL-5 melanoma) was 23.3 µM and the GI50 (SK-MEL-2 melanoma) was 5.79 µM. It also gave a TGI (SK-MEL-2 melanoma) of 40.9 µM, a GI50 (M14 melanoma) of 1.88 µM and a TGI (M14 melanoma) of over 19.7 µM. It also gave a GI50 (KM12 colon) of 12.6 µM, a TGI (KM12 colon) of 26 µM and a GI50 (OVCAR-3 ovarian) of 1.92 µM. For the same compound, the TGI (OVCAR-3 ovarian) was 3.65 µM, the GI50 (SF-295 CNS) was 15.3 µM and the TGI (SF-295 CNS) was 30 µM. It also gave a GI50 (CCRF-CEM leukemia) of 3.53 µM, a TGI (CCRF-CEM leukemia) of 33.5 µM and a GI50 (HS 578T breast) of 17.6 µM. For the same compound, the TGI (HS 578T breast) was 53.1 µM, the GI50 (NCI/ADR-RES ovarian) was 11.8 µM and the TGI (NCI/ADR-RES ovarian) was 39 µM. It also gave a GI50 (IGROV1 ovarian) of 4.8 µM, a TGI (IGROV1 ovarian) of 21.8 µM and a GI50 (RXF 393 renal) of 1.74 µM. It also gave a TGI (RXF 393 renal) of 3.73 µM, a GI50 (UACC-62 melanoma) of 8.48 µM and a TGI (UACC-62 melanoma) of 22.2 µM. It also gave a GI50 (T-47D breast) of 1.7 µM, a TGI (T-47D breast) of 4.51 µM and a GI50 (LOX IMVI melanoma) of 3 µM. The TGI (LOX IMVI melanoma) was 7.69 µM, the GI50 (MALME-3M melanoma) was 0.723 µM and the TGI (MALME-3M melanoma) was 2.4 µM. It also gave a GI50 (SF-539 CNS) of 2.13 µM, a TGI (SF-539 CNS) of 5.51 µM and a GI50 (HL-60(TB) leukemia) of 2.5 µM. For the same compound, the TGI (HL-60(TB) leukemia) was 9.3 µM, the GI50 (SR leukemia) was 1.8 µM and the TGI (SR leukemia) was 6.86 µM. For the same compound, the GI50 (OVCAR-4 ovarian) was 5.88 µM, the TGI (OVCAR-4 ovarian) was 15.8 µM and the GI50 (NCI-H23 lung) was 4.95 µM. The TGI (NCI-H23 lung) was 10.6 µM, the GI50 (OVCAR-8 ovarian) was 2.19 µM and the TGI (OVCAR-8 ovarian) was 4.54 µM. It also gave a GI50 (SK-MEL-28 melanoma) of 2.84 µM, a TGI (SK-MEL-28 melanoma) of 7.19 µM and a GI50 (DU-145 prostate) of 2.92 µM. For the same compound, the TGI (DU-145 prostate) was 7.88 µM, the GI50 (PC-3 prostate) was 4.99 µM and the TGI (PC-3 prostate) was 20.9 µM. For the same compound, the GI50 (UACC-257 melanoma) was 1.69 µM, the TGI (UACC-257 melanoma) was 3.5 µM and the GI50 (RPMI-8226 leukemia) was 3.64 µM. For the same compound, the TGI (RPMI-8226 leukemia) was 14.8 µM, the GI50 (HCC-2998 colon) was 13.7 µM and the TGI (HCC-2998 colon) was 27.2 µM. The GI50 (SK-OV-3 ovarian) was 16.3 µM, the TGI (SK-OV-3 ovarian) was 30.5 µM and the GI50 (HT29 colon) was 3.59 µM. The TGI (HT29 colon) was 13.7 µM, the GI50 (TK-10 renal) was 1.64 µM and the TGI (TK-10 renal) was 3.43 µM. It also gave a GI50 (HCT-116 colon) of 2.12 µM, a GI50 (NCI-H226 lung) of 16.1 µM and a TGI (NCI-H226 lung) of 37 µM. For the same compound, the GI50 (SW-620 colon) was 1.45 µM, the TGI (SW-620 colon) was 3.09 µM and the GI50 (U251 CNS) was 7.42 µM. The TGI (U251 CNS) was 20.6 µM, the GI50 (MCF7 breast) was 2.64 µM and the TGI (MCF7 breast) was 8.36 µM. It also gave a GI50 (MDA-MB-435) of 1.59 µM, a TGI (MDA-MB-435) of 3.53 µM and a GI50 (HOP-62 NSCLC) of 20.4 µM. It also gave a TGI (HOP-62 NSCLC) of over 57.9 µM, a GI50 (MOLT-4 leukemia) of 8.47 µM and a TGI (MOLT-4 leukemia) of 33.3 µM. For the same compound, the GI50 (HCT-15 colon) was 2.4 µM, the TGI (HCT-15 colon) was 6.5 µM and the GI50 (OVCAR-5 ovarian) was 11.3 µM. It also gave a TGI (OVCAR-5 ovarian) of 24.2 µM, a GI50 (MDA-MB-231 breast) of 13.5 µM and a TGI (MDA-MB-231 breast) of 28.8 µM. The GI50 (SNB-75 CNS) was 13.1 µM, the TGI (SNB-75 CNS) was 25.9 µM and the GI50 (NCI-H522 lung) was 1.03 µM. For the same compound, the TGI (NCI-H522 lung) was 2.88 µM, the GI50 (786-0 renal) was 10.1 µM and the TGI (786-0 renal) was 41.5 µM. It also gave a GI50 (SNB-19 CNS) of 16.6 µM, a TGI (SNB-19 CNS) of 32.1 µM and a GI50 (SF-268 CNS) of 15.6 µM. It also gave a TGI (SF-268 CNS) of 31.2 µM, a GI50 (UO-31 renal) of 0.754 µM and a TGI (UO-31 renal) of 2.15 µM. It also gave a GI50 (ACHN renal) of 1.36 µM, a TGI (ACHN renal) of 2.91 µM and a GI50 (BT-549 breast) of 2.13 µM. It also gave a TGI (BT-549 breast) of 6.48 µM, a GI50 (K-562 leukemia) of 2.19 µM and a TGI (K-562 leukemia) of 7.13 µM. For the same compound, the GI50 (EKVX NSCLC) was 5.62 µM, the TGI (EKVX NSCLC) was 20.6 µM and the GI50 (A498 renal) was 15.9 µM. It also gave a TGI (A498 renal) of 29.8 µM, a GI50 (NCI-H460 lung) of 17.8 µM and a TGI (NCI-H460 lung) of 37.8 µM. It also gave a GI50 (A549 NSCLC) of 14.8 µM, a TGI (A549 NSCLC) of 36.2 µM and a GI50 (SN12C renal) of 6.3 µM. It also gave a TGI (SN12C renal) of 23 µM, a GI50 (COLO 205 colon) of 0.296 µM and a TGI (COLO 205 colon) of 0.802 µM. The GI50 (HOP-92 NSCLC) was 1.83 µM, the TGI (HOP-92 NSCLC) was 7.19 µM and the GI50 (CAKI-1 renal) was 1.51 µM. It also gave a TGI (CAKI-1 renal) of 3.33 µM.
